{"source": "patent US11458150B2", "about": "(priority 2019, dated 2022)", "origin": "cited, not measured here", "tested_on": "pellagra patients", "conditions": "in vivo", "data": [{"smiles": "O=C(O)c1cccnc1", "note": "[nicotinic acid]", "values": [{"measurement": "effect on symptoms of pellagra", "result": "disappearance of many symptoms of the disease"}, {"measurement": "time to blanching of acute erythematous dermal lesions with intact epithelium", "result": "≤ 48", "unit": "h"}]}]}
